From US20130040952A1 (priority 2011, published 2013) come the findings set out here.

Common to all, as to type: cell-based, recombinant influenza virus in WSN background
Experiment [1] has as its system nucleozin-resistant rWSN virus (Y289H mutation at NP).
In experiment [2] the test system is Y52H/Y289H double mutation rWSN virus. Conditions: read-out: Anti-rWSN IC50 (μM), NP Y52H/Y289H.
For experiment [3], the system named is compound 3061-resistant rWSN virus (Y52H mutation at NP).

Regarding `O=C(NCCCN1CCOCC1)c1csc(Nc2ccc(Cl)c(Cl)c2)n1` [compound 1], the “inhibition of nucleozin-resistant strain” value in experiment [1] is “capable of inhibiting”. The IC50 stood at 4 µM in experiment [1] (read-out: Anti-rWSN IC50 (μM), NP Y289H); 1.8 µM in experiment [2]; 3.2 µM in experiment [3] (read-out: Anti-rWSN IC50 (μM), NP Y52H). The “inhibition of 3061-resistant strain” value in experiment [3] is reported as “capable of inhibiting”.
